From patent US11890266B2 (University of Canberra, priority 2016, dated 2024)

Experiments:
[1] = system: form-deprivation myopia (FDM) in chick eyes fitted with a translucent diffuser; assay: Form-deprivation myopia (FDM) induced by translucent diffuser, five day treatment; axial length and refraction; assay type: in vivo, White Cockerel chickens; settings: Example 15, five days; for effect of intravitreal injection versus topical administration on refraction and axial elongation: daily administration; for axial elongation in comparison with animals fitted with a translucent diffuser only (G2) / myopic shift in refraction in comparison with animals fitted with a translucent diffuser only (G2): ADTN 1 mM, atropine 2 mM, pirenzepine 16 mM
Method: For the drug treatments, the compositions were administered under light isoflurane anesthesia using intravitreal injection or topical administration.
Intravitreal injection was performed as follows: Using a 30 gauge needle attached to a Hamilton syringe, 10 μL (0.01 mL) of the test composition was injected into the vitreous chamber of the eye once daily.
Topical administration was performed as follows: Two drops of 40 μL (two drops of 0.04 mL, or 0.08 mL total) of the test composition was applied to the corneal surface of the eye using an eye drop dispenser. Drops were applied to the chicks twice daily.
To determine changes in the rate of eye growth and the development of myopia, changes in axial length and refraction were assessed. Myopia is associated with excessive elongation of the eye in the axial direction relative to normal growth rates. Such excessive axial elongation leads to a relative myopic change in refraction. Axial length and refraction were measured using A-scan ultrasonography (Biometer AL-100; Tomey Corporation, Nagoya, Japan) and automated infrared photo-retinoscopy respectively. Statistical analysis of changes in both refraction and axial length between groups involved a one-way ANOVA test followed by a Student's T-test with Bonferroni correction. All data are presented as the mean±the […] of the mean (SEM). […]
70 male White Cockerel chickens were randomly assigned to one of 14 treatment groups as defined below (n=5 per group) and were treated for a five day period. G1-G14 represent the labelling system used in FIGS. 11 and 12.
ADTN compositions were prepared by dissolving ADTN in a solution containing 0.1% ascorbic acid in 1×PBS to a final concentration of 1 mM (0.03% w/v), and adjusting the pH to 7. Atropine and pirenzepine compositions were prepared by dissolving atropine (in the form of atropine sulfate salt monohydrate) or pirenzepine (in the form of pirenzepine dihydrochloride) in distilled water to a final concentration of 2 mM (0.14% w/v) and 16 mM (0.7% w/v), respectively, and adjusting the pH to 7.
Administration of test compositions and measurement of ocular parameters was performed in accordance with that described in Example 4.

[2] = system: form-deprivation myopia (FDM) in chick eyes fitted with a translucent diffuser; assay: Safety and efficacy of topical levodopa in form-deprivation myopia over a four week period; assay type: in vivo, White Cockerel chickens; settings: topical 0.3% w/v (15 mM) levodopa composition of Example 1, twice daily, four weeks
Method: Male White Cockerel chickens were kept under normal laboratory light (500 lux, fluorescent lights) on a 12:12 hour light:dark cycle with lights on at 9:30 am and off at 9:30 pm. In all chicks, left eyes were treated experimentally while right eyes remained untreated to serve as a contralateral control. Chicks were randomly assigned to one of four groups (n=6 for each group) and treated over the four week period under the following experimental conditions: • 1. […] Form-deprivation myopia (FDM): Chicks were fitted with a translucent diffuser over their left eye to induce FDM, receiving no further treatment • 3.
Administration of the test compositions was performed in accordance with that described in Example 4.
To determine changes in the rate of eye growth and the development of myopia, axial length and refraction were measured using A-scan ultrasonography (Biometer AL-100; Tomey Corporation, Nagoya, Japan) and automated infrared photo-retinoscopy, respectively. Ocular measurements (axial length and refraction) were made on day one (prior to the commencement of experimentation) and every seven days for four weeks.
A multivariate analysis of variance (MANOVA) with repeated measures design was used to compare the effect of the different treatment regimens over time.

[3] = daily topical administration, levodopa 0.03% w/v in combinations

Structure (SMILES)	effect of intravitreal injection versus topical administration on refraction and axial elongation [1]	axial elongation in comparison with animals fitted with a translucent diffuser only (G2) ([1]; daily intravitreal injection)	myopic shift in refraction in comparison with animals fitted with a translucent diffuser only (G2) ([1]; daily intravitreal injection)	axial elongation in comparison with animals fitted with a translucent diffuser only (G2) [1, 3]	myopic shift in refraction in comparison with animals fitted with a translucent diffuser only (G2) [1, 3]	axial elongation in comparison to diffusers in the absence of levodopa treatment [2]
NC1CCc2cc(O)c(O)cc2C1 (stereo not shown) [ADTN, 2-amino-6,7-dihydroxy-1,2,3,4-tetrahydronaphthalene]	intravitreal injection having a greater effect than topical administration	decreased axial elongation	significantly inhibited the myopic shift in refraction	decreased axial elongation	significantly inhibited the myopic shift in refraction	
CN1[C@@H]2CC[C@H]1C[C@@H](OC(=O)C(CO)c1ccccc1)C2 (stereo partly shown) [atropine]	intravitreal injection having a greater effect than topical administration	decreased axial elongation	significantly inhibited the myopic shift in refraction	decreased axial elongation	significantly inhibited the myopic shift in refraction	
N[C@@H](Cc1ccc(O)c(O)c1)C(=O)O [levodopa]						decreased axial elongation
CN1CCN(CC(=O)N2c3ccccc3C(=O)Nc3cccnc32)CC1 [pirenzepine]	greater when intravitreally administered	decreased axial elongation	significantly inhibited myopic shifts in refractive development	decreased axial elongation	significantly inhibited myopic shifts in refractive development	
